Reference: patent US20100015126A1, “Methods of Binding of Cross-Beta Structures By Chaperones” (priority 2006, published 2010)

Biological target: T1, BiP-Sepharose (Homo sapiens, UniProt P11021)
T1 construct: The human BiP gene except the signal peptide encoding region was obtained from Geneart (Germany); linker […]; made in house; host or cells: HEK 293E cells, transient transfection, PABC674 vector; secreted into the medium
Experiment: BiP-Sepharose extraction of proteins from patient plasma, serum, synovial fluid and mass-spectrometric identification
Format: binding
Settings: for Specific binding to BiP-Sepharose from control serum: compared to RA patient III
Experimental: BiP was coated on CNBr-Sepharose (GE-Healthcare, Amersham Biosciences). Immobilization of BiP was performed essentially as described elsewhere in this application for NHS-Sepharose. CNBr-matrix was dissolved at 200 mg/ml in 1 mM HCl and treated the same as the NHS-matrix, except for an additional 5 minutes activation step in 1 mM HCl on a roller device before washing in this buffer. BiP was diluted in immobilization buffer (50 mM NaCl and 40 mM NaHCO3) to a concentration of 820 μg/ml. A total volume of 2 ml BiP solution (1640 μg BiP) was incubated with 360 mg beads. Negative control matrix was exposed to immobilization buffer, only. After overnight immobilization matrix was blocked with Tris and washed.
Six samples were incubated with the BiP-Sepharose, IgIV-Sepharose and the control-Sepharose: Normal pooled plasma, plasma of a patient I or of a patient II, with AL amyloidosis, serum of a patient III with RA (Rheumatoid Factor (RF) titer 682), control serum and synovial fluid of a patient IV with RA (RF titer 23). All samples were diluted 20× in HBS and applied to 200 μl beads in two volumes of 500 μl. One volume was incubated for 4 h at RT and supernatant was discarded after centrifugation (2 minutes at 1400 rpm). Subsequently, the second volume was applied to the same matrix and incubated overnight on a roller device at 4° C. […] To collect the eluates, the matrices were centrifuged and the two eluates were pooled for each sample.
Protein digests were desalted as described (Rappsilber et al., 2003), vacuum dried and dissolved in 2.5% formic acid.
For analysis of peptide mixtures, an Agilent 1100 HPLC system (Agilent Technologies) connected to a Thermo Finnigan LTQ-MS (Thermo Electron, Bremen, Germany) was used. Protein digests were injected on a trap column (Reprosil C18 RP (Dr Maisch, Germany), 20 mm×100 μm I.D.) at 5 μl/minute. Subsequently, the peptides were transferred with a split-reduced flow rate of 100 nL/minute solvent A (0.1 M acetic acid) on the analytical column (Reprosil C18 RP, 20 cm×50 μm I.D.). […] The column effluent was directly introduced into the ESI source of the mass spectrometer via a butt-connected nano-ESI emitter (New Objectives, Woburn, Mass.). The mass spectrometer was operated in the positive ion mode and parent ions were selected for fragmentation in data-dependent mode.
After mass spectrometric measurements, peak lists were generated using BioWorks software (Thermo Electron, Bremen, Germany). Protein identification was performed using Mascot software (www.matrixscience.com) by searching the IPIhuman database (version 3.24, downloaded from ftp://ftp.ebi.ac.uk/pub/databases/IPI/current) using the following settings: fully tryptic peptides, peptide tolerance 0.8 Da, MS/MS tolerance 0.9 Da, 1 missed cleavage allowed, carbamidomethyl (Cys) and oxidation (Met) as fixed and variable modification, respectively. The Scaffold software package (www.proteomesoftware.com) was used to parse the data and to filter peptides at a confidence level of 95%, allowing only protein identification with at least 2 peptides identified.

[1] = Sample B3: eluate of BiP-Sepharose contacted with AL amyloidosis patient II plasma
[2] = Sample B4: eluate of BiP-Sepharose contacted with RA patient III serum
[3] = Sample B6: eluate of BiP-Sepharose contacted with RA patient IV synovial fluid
[4] = compared to AL amyloidosis patient I
[5] = Sample B2: eluate of BiP-Sepharose contacted with AL amyloidosis patient I plasma
[6] = compared to AL amyloidosis patient II

T1 sequence (P11021 19-654): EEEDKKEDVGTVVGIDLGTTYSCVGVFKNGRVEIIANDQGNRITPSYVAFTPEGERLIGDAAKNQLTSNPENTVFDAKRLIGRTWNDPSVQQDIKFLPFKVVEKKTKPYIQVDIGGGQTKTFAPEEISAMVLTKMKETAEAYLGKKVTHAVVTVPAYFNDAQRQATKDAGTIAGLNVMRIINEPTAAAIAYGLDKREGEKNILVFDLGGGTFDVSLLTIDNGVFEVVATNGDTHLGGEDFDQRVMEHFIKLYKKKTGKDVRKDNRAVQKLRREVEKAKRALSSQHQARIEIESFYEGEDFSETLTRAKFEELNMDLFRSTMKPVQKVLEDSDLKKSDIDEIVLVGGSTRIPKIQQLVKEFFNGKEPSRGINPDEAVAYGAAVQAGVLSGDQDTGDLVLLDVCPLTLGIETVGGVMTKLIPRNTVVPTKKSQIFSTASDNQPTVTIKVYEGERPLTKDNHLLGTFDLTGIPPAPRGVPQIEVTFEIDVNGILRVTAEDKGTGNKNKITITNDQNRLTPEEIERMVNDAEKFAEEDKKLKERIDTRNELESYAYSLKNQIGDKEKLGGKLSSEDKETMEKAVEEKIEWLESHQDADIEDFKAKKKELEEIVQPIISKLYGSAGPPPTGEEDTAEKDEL

| Substance | # of peptides in sample A# [1] | # of peptides in sample A# [2] | also measured |
| --- | --- | --- | --- |
| Dynein heavy chain domain 3/KIAA1503 protein (Fragment) [IPI00783464] | 2 |  |  |
| IGLC1 protein (immunoglobulin lambda C1)/immunoglobulin lambda chain/immunoglobulin C1 segment protein (fragment) [IPI00719373] | 1 | 2 | # of peptides in sample A# [3]: 1 |
| Ig heavy chain V-III region TUR/Ig heavy chain V-III region TIL [IPI00382478] |  | 1 |  |
| (sero)transferrin [IPI00022463] |  |  | Specific binding to BiP-Sepharose from normal pooled plasma [4]: specifically bound; Specific binding to BiP-Sepharose from control serum: specifically bound |
| Myosin-reactive immunoglobulin light chain variable region/Ig kappa chain V-III region VH precursor (Fragment) [IPI00024138] |  | 3 |  |
| Vitronectin precursor (Serum-spreading factor/S-protein/V75 [Contains: Vitronectin V65 subunit; Vitronectin V10 subunit; Somatomedin B])/Vitronectin [IPI00298971] |  | 4 |  |
| Hypothetical protein DKFZp686N02209/immunoglobulin heavy constant gamma 1 (G1m marker) [IPI00384938] | 1 |  |  |
| GCN1 general control of amino-acid synthesis 1-like 1 (yeast)/GCN1-like protein 1 (HsGCN1) [IPI00001159] |  | 2 |  |
| Hypothetical protein LOC651928/Immunoglobulin kappa variable 1-5/IGKV2-24 protein [IPI00440577] | 1 | 1 |  |
| Immunoglobulin J chain, Immunoglobulin J polypeptide, linker protein for immunoglobulin alpha and mu polypeptides [IPI00178926] |  | 5 |  |
| Fc fragment of IgG binding protein (IgGFc-binding protein precursor/FcgammaBP/Fcgamma-binding protein antigen) [IPI00242956] |  |  | # of peptides in sample A# [5]: 4 |
| Phosphatase and actin regulator 4 isoform 1/Hypothetical protein DKFZp686L07205 [IPI00217851] |  | 2 |  |
| Hypothetical protein/Heat shock 70 kDa protein 5 (glucose-regulated protein, 78 kDa = GRP78 = BiP = HSPA5) [IPI00003362] |  |  | # of peptides in sample A# [3]: 31 |
| 25 kDa protein/Immunoglobulin lambda locus [IPI00747752] | 8 |  |  |
| Ig heavy chain V-III region CAM [IPI00382482] |  |  | # of peptides in sample A# [3]: 2 |
| clusterin isoform 1 [IPI00291262] |  |  | Specific binding to BiP-Sepharose from normal pooled plasma [6]: specifically bound; Specific binding to BiP-Sepharose from control serum: specifically bound |
| Isoform Long of Antigen KI-67/Antigen KI-67 [IPI00004233] |  |  | # of peptides in sample A# [5]: 1 |
| Complement component 4 binding protein, alpha, C4b-binding protein alpha chain precursor (C4bp) (Proline-rich protein/PRP) [IPI00021727] |  | 7 | Specific binding to BiP-Sepharose from normal pooled plasma [6]: specifically bound |
| Alpha-2-macroglobulin [IPI00478003] |  |  | Specific binding to BiP-Sepharose from normal pooled plasma [4]: specifically bound; Specific binding to BiP-Sepharose from normal pooled plasma [6]: specifically bound |

| Substance | # of peptides in sample A# [1] | # of peptides in sample A# [2] | also measured |
| --- | --- | --- | --- |
| Ig kappa chain V-I region WEA/Similar to Ig kappa chain V-I region HK102 precursor/Ig kappa chain V-I region AU [IPI00003111] |  | 2 |  |
| Alpha-1-antitrypsin precursor/Serpin peptidase inhibitor, clade A (alpha-1 antiproteinase, antitrypsin), member 1 [IPI00553177] |  | 1 |  |
| 187 kDa protein/Complement component 3 [IPI00164623] |  | 9 |  |
| 26 kDa protein/immunoglobulin kappa variable 1-5 [IPI00738024] | 1 |  | # of peptides in sample A# [5]: 1 |
| Full-length cDNA clone CS0DL004YM19 of B cells (Ramos cell line) of Homo sapiens (Fragment)/Unnamed protein product [IPI00328493] |  | 4 |  |
| haptoglobin [IPI00431645] |  |  | Specific binding to BiP-Sepharose from normal pooled plasma [4]: specifically bound; Specific binding to BiP-Sepharose from normal pooled plasma [6]: specifically bound; Specific binding to BiP-Sepharose from control serum: specifically bound |
| Hypothetical protein [IPI00807428] |  |  | # of peptides in sample A# [5]: 1 |
| complement factor H isoform I [IPI00029739] |  |  | Specific binding to BiP-Sepharose from normal pooled plasma [6]: specifically bound |
| Hypothetical protein/immunoglobulin lambda locus/immunoglobulin lambda chain C regions (1/2/3)/immunoglobulin lambda variable V2-14/Ig lambda C3 protein (C2 segment protein, C3 segment protein)/Hypothetical protein DKFZp667J0B10 (Fragment) [IPI00760678] |  |  | # of peptides in sample A# [5]: 1 |
| 25 kDa protein/immunoglobulin lambda chain/rheumatoid factor G9 light chain (lambda V3)/IGLC1 protein [IPI00154742] | 1 |  | # of peptides in sample A# [5]: 1 |
| Isoform 1 of Plectin-1/Plectin 1 (intermediate filament binding protein 500 kDa, Hemidesmosomal protein 1/HD1) [IPI00014898] | 1 | 2 |  |
| Single-chain Fv (Fragment) [IPI00470652] | 2 |  |  |
| Immunoglobulin lambda variable 3-25/V2-17 protein (Fragment) [IPI00550162] |  | 10 | # of peptides in sample A# [5]: 8 |
| 26 kDa protein/Immunoglobulin kappa variable 1-5 [IPI00430820] |  |  | # of peptides in sample A# [3]: 6 |
| Hypothetical protein [IPI00784983] | 2 |  | # of peptides in sample A# [3]: 1 |
| Hypothetical protein/Ig kappa chain V-II region RPMI 6410 precursor [IPI00550731] | 1 |  |  |
| IGLC2 protein (immunoglobulin lambda C2)/Immunoglobulin lambda [IPI00555945] |  |  | # of peptides in sample A# [5]: 1 |
| Apolipoprotein E precursor/Apolipoprotein E/Apolipoprotein E3 (Fragment) [IPI00021842] |  |  | # of peptides in sample A# [5]: 6 |
| Hypothetical protein/immunoglobulin lambda variable 4-3 [IPI00382938] | 2 |  | # of peptides in sample A# [5]: 1 |
